Measurements: patent publication US20080109040A1, “METHOD OF TREATING ARRHYTHMIAS” (priority 2002, published 2008)
Where two headings read alike, the source gives them in different places.

Key:
Purkinje fibers = system: Purkinje fibers; design: species or system canine; settings: for Amplitude (phase 0) / Overshoot / RMP: BCL = 500 msec
Protocol: Dogs weighing 20-25 kg were anticoagulated with heparin and anesthetized with pentobarbital (30-35 mg/kg, i.v.). The chest was opened via a left thoracotomy, the heart excised and placed in a cold cardioplegic solution ([K^+]o=8 mmol/L, 4° C.). Free running Purkinje fibers were isolated from the left and right ventricles. The preparations were placed in a tissue bath (5 ml volume with flow rate of 12 ml/min) and allowed to equilibrate for at least 30 min while superfused with an oxygenated Tyrode's solution (pH=7.35, t^0=37±0.5° C.) and paced at a basic cycle length (BCL) of 1 Hz using point stimulation. The composition of the Tyrode's solution was as following (in mM): NaCl 129, KCl 4, NaH2PO4 0.9, NaHCO3 20, CaCl2 1.8, MgSO4 0.5, and D-glucose 5.5.
Action potential recordings: Transmembrane potentials were recorded using standard glass microelectrodes filled with 2.7 M KCl (10 to 20 MΩ DC resistance) connected to a high input-impedance amplification system (World Precision Instruments, Sarasota, Fla., USA).
Control recordings were obtained after a 30 min equilibration period. Increasing concentrations of ranolazine (1, 5, 10, 50, and 100 μM) were evaluated, with recordings started 20 minutes after the addition of each concentration of the drug. The rate-dependence of ranolazine's actions were evaluated by recording action potentials at basic cycle lengths (BCL) of 300, 500, 800, 1000, 2000, and 5000 msec. In this report only BCLs of 500 and 2000 msec are presented as representative of relatively rapid and slow pacing rates.
Because low extracellular K^+ is known to promote drug-induced APD prolongation and early afterdepolarizations, we determined the effects of ranolazine in the presence of normal (4 mM) and low (3 mM) [K^+]o.
In the final phase, we evaluate the effects of ranolazine on EADs induced by d-sotalol (100 μM), a fairly specific IKr blocker.

[1] = system: patients with LQT3-ΔKPQ mutation; test: 8-hour intravenous ranolazine infusion in patients with hereditary long QT-syndrome LQT3-ΔKPQ; type: in vivo, human
Text: Subjects were drawn from the U.S. portion of the international LQTS Registry. Eligibility criteria for enrollment in the study were genotype confirmed LQT3-ΔKPQ mutation with QTc>0.47 sec, males or females age 18-55 years of age, and signed informed consent to participate in this study. Patients already taking beta-blocking medication were continued on the drug. Patients with an implanted pacemaker or defibrillator or those with prior cervical-thoracic sympathetic ganglionectomy were not excluded. Exclusion criteria included significant comorbility that would preclude the patient's safe participation in this study, pregnancy or women of child-bearing age not receiving appropriate contraceptive therapy with any other sodium-channel blocker, use of medications that inhibit CYP-3A4 hepatic enzymes, (including diltiazem or verapamil) and psycho-social problems that could compromise compliance with the protocol. Thirteen patients with the LQT3-ΔKPQ mutation from two unrelated families met the eligibility criteria without exclusion, and of eight contacted patients five agreed to participate in the study.
Each patient had clinical and laboratory assessment including ultrasound evaluation on Day-2. Baseline studies off drug began at 8:00 am on Day-1: 12-lead ECG recorded at 8:00 am and every 0.5 hour for 8 hours and then at 2, 4, and 16 hours thereafter; a continuous 12-lead Holter was recorded for 24 hours. The 8-hour infusion of intravenous ranolazine was started at 8:00 am on Day 1 with time-matched ECG recordings at the same times as on Day-1. The second echocardiogram was obtained just before completion of the 8-hour of ranolazine infusion on Day 1. Blood samples for plasma ranolazine concentrations were drawn at hourly intervals during the ranolazine infusion, and at 2, 4, and 16 hours following completion of ranolazine infusion on Day 1.
Five patients with LQT3-ΔKPQ mutation were prospectively investigated during 8-hour intravenous infusions of ranolazine with electrocardiographic and echocardiographic evaluation before and during ranolazine administration. Ranolazine was infused at a rate of 40 mg/hr for 3 hours, with doubling of the infusion rate during the subsequent 5 hours while obtaining hourly ranolazine blood levels.
Changes in electrocardiographic parameters from before to during ranolazine infusion were evaluated by time-matched, paired t-test analyses, with repeated measures analysis of variance (ANOVA) where appropriate. The primary pre-specified electrocardiographic QTc analysis utilized a mixed-effects linear model of the change from time-matched baseline in QTc during ranolazine infusion with a fixed effect for time and a random effect for subject. A linear regression equation relating ranolazine blood level to QTc was developed using an analysis of covariance with effects for ranolazine level, subject and the interaction of subject with ranolazine level. The echocardiographic analyses involved evaluation of baseline parameters relative to normal standards for the laboratory as well as statistical comparisons of change in specific quantitative parameters between baseline and the peak ranolazine infusion. Two-sided p-values<0.05 were considered significant.
12-lead ECGs and 24-hour 12-lead Holter ECGs were obtained to evaluate ventricular repolarization before, during, and after ranolazine infusion. The QT interval and the Fridericia corrected QT interval for heart rate (QTc) were measured according to standard criteria. QT was measured from the beginning of QRS complex to the end of T wave determined by an intersection of T wave and isoelectric line or to the nadir between T and U waves. U waves were not incorporated in the measurement of QT interval. Measurement of T-wave patterns included QT peak (ms), T-wave duration (ms), T peak-T end (ms), and T-wave amplitude (mv). The ECG parameters were measured on 3 consecutive beats in lead II, with lead aVF or V5 used if lead II was technically unsatisfactory. […]

[2] = ranolazine 1.0 μM, [K+]0 = 3.0 mM
[3] = ranolazine 1.0 μM, [K+]0 = 4.0 mM
[4] = ranolazine 5.0 μM, [K+]0 = 3.0 mM
[5] = ranolazine 5.0 μM, [K+]0 = 4.0 mM
[6] = ranolazine 10.0 μM, [K+]0 = 3.0 mM
[7] = ranolazine 10.0 μM, [K+]0 = 4.0 mM
[8] = ranolazine 50.0 μM, [K+]0 = 3.0 mM
[9] = ranolazine 50.0 μM, [K+]0 = 4.0 mM
[10] = ranolazine 100.0 μM, [K+]0 = 3.0 mM
[11] = ranolazine 100.0 μM, [K+]0 = 4.0 mM
[12] = peak ranolazine infusion vs baseline

COc1ccccc1OCC(O)CN1CCN(CC(=O)Nc2c(C)cccc2C)CC1 (racemic) [ranolazine, N-(2,6-dimethylphenyl)-4-[2-hydroxy-3-(2-methoxyphenoxy)propyl]-1-piperazineacetamide]
Lowest concentration suppressing EADs induced by d-sotalol (Purkinje fibers): 5 micromolar/L
Amplitude (phase 0) (Purkinje fibers; [2]): 132 ± 6
Overshoot (Purkinje fibers; [2]): 40 ± 5
RMP (Purkinje fibers; [2]): −92 ± 1
Amplitude (phase 0) (Purkinje fibers; [3]): 120 ± 9
Overshoot (Purkinje fibers; [3]): 32 ± 7
RMP (Purkinje fibers; [3]): −90 ± 2
Amplitude (phase 0) (Purkinje fibers; [4]): 130 ± 5
Overshoot (Purkinje fibers; [4]): 38 ± 4
RMP (Purkinje fibers; [4]): −92 ± 1
Amplitude (phase 0) (Purkinje fibers; [5]): 124 ± 3
Overshoot (Purkinje fibers; [5]): 34 ± 7
RMP (Purkinje fibers; [5]): −90 ± 2
Purkinje fibers in which d-sotalol-induced EADs were abolished (Purkinje fibers; ranolazine 5 μM, d-sotalol 100 μM): 4 out of 4
Amplitude (phase 0) (Purkinje fibers; [6]): 128 ± 4
Overshoot (Purkinje fibers; [6]): 37 ± 4
RMP (Purkinje fibers; [6]): −92 ± 1
Amplitude (phase 0) (Purkinje fibers; [7]): 122 ± 7
Overshoot (Purkinje fibers; [7]): 32 ± 6
RMP (Purkinje fibers; [7]): −90 ± 3
Amplitude (phase 0) (Purkinje fibers; [8]): 121 ± 7
Overshoot (Purkinje fibers; [8]): 29 ± 6
RMP (Purkinje fibers; [8]): −92 ± 1
Amplitude (phase 0) (Purkinje fibers; [9]): 117 ± 7
Overshoot (Purkinje fibers; [9]): 28 ± 7
RMP (Purkinje fibers; [9]): −89 ± 3
Amplitude (phase 0) (Purkinje fibers; [10]): 114 ± 7
Overshoot (Purkinje fibers; [10]): 24 ± 7
RMP (Purkinje fibers; [10]): −90 ± 2
Amplitude (phase 0) (Purkinje fibers; [11]): 106 ± 12
Overshoot (Purkinje fibers; [11]): 19 ± 11
RMP (Purkinje fibers; [11]): −87 ± 3
Effect on APD (Purkinje fibers; ranolazine 1-10 μM, [K+]o 4 mM): either no effect or a relatively small abbreviation
Effect on Vmax (Purkinje fibers; ranolazine 50 and 100 μM): significant reduction
Effect on APD90 (Purkinje fibers; ranolazine 50 and 100 μM, [K+]o 4 mM): markedly abbreviated at slow, but not at rapid pacing rates
Effect on APD50 (Purkinje fibers; ranolazine 50 and 100 μM, rapid and slow rates, [K+]o 4 mM): significantly abbreviated
QTc during ranolazine ([1]; 8-hour iv infusion, baseline 558±55 ms): 532 ± 46 ms
Mean reduction in QTc from baseline ([1]; entire 8-hour iv ranolazine infusion, 5 patients): 26 ± 3 ms
Average slope of QTc vs. ranolazine plasma concentration ([1]; human, in vivo): −24 ms per 1000 ng/ml
Decrease in mitral E-wave deceleration time [1, 12]: 18%
Increase in mitral E-wave velocity [1, 12]: 27%
Shortening in left ventricular isovolumic relaxation time [1, 12]: 15%
Adverse effects ([1]; study patients): No adverse effects
